Data set [1] is described as follows: Experimental LogD (partition coefficient).
A short description of data set [2]: Lactate dehydrogenase (LDH) release assay. The settings on record: LDH: Cytotoxicity assay EC50. Format: cell-based. The essentials:
(§1)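 HCT116 cells stably carrying a p53-responsive β-lactamase reporter were seeded at 8000 cells per well with a final DMSO level of 0.5%. Membrane integrity was assessed by lactate dehydrogenase release using a homogeneous fluorometric kit. Values are geometric means of at least three biological replicates.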

The nature of data set [3]: Solubility assay (kinetic solubility, PBS pH 7). Format: physicochemical. Conditions: pH 7, aqueous buffer, kinetic from dmso stock. A digest of the protocol: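 Quantitation uses an external standard at 100 µM, prepared from 10 mM stock in acetonitrile:methanol:DMSO (10:80:10). Solubility (µM) = (peak area of sample ÷ peak area of standard) × standard concentration.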

Data set [4] deals with Jump-In T-REx CHO-K1 BLA cells. Briefly: cells. The data set is classed as cell-based. The settings on record: for EC50: read-out: TETCHO: Counterscreen EC50.
The subject of data set [5] is p53 responsive β-lactamase reporter in HCT116 cells. Nature of the data set: cells. The settings on record: for EC50: Homo sapiens, read-out: p53 reporter assay EC50. Format: cell-based. The essentials:
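HCT116 cells stably carrying a p53-responsive β-lactamase reporter, seeded at 8000 cells/well, with 0.5% DMSO final. Reporter activity read by ToxBLAzer Dual Screen. Values are geometric means of at least three biological replicates.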

Another data set relates to HCT116 cells. Nature of the data set: Lactate dehydrogenase (LDH) release assay. Format: cell-based. A digest of the protocol:
as §1

Setting [6] is: not stated, Partition Coeff LogD.
The mark [7] stands for this setting: pH 7, PBS, read-out: Solubility.

In brackets after ≈: the same amount, converted by molar mass. Where two headings read alike, the source gives them in different places. Positions of bridges follow the written chain, without caps; N, C: chain ends. Non-standard residues stand in square brackets, D forms with d. Residues, ends and D or L forms follow the SMILES beside them. R8 = C=CCCCCCC[C@@](C)(N)C(=O)O; Cba = N[C@@H](CC1CCC1)C(=O)O; S5 = C=CCCC[C@](C)(N)C(=O)O

As usually defined, the logD is the decadic logarithm of the distribution of all forms, ionised or not, between an organic phase and buffer at a given pH. For orientation: EC50 means the concentration that produces a half-maximal response. Take `CC(=O)N[C@@H](Cc1c[nH]cn1)C(=O)N[C@H](C(=O)N[C@@H](Cc1ccccc1)C(=O)N[C@]1(C)CCCCCCC=CCCC[C@@](C)(C(=O)N[C@@H](CO)C(=O)N[C@@H](C)C(=O)N[C@@H](C)C(N)=O)NC(=O)[C@H](CC2CCC2)NC(=O)[C@H](CC(C)C)NC(=O)[C@H](CCC(N)=O)NC(=O)[C@H](Cc2c[nH]c3ccccc23)NC(=O)[C@H](Cc2ccc(O)cc2)NC(=O)[C@H](CCC(=O)O)NC1=O)[C@@H](C)O` [MP-197, ATSP-7041 (L1H)] (Ac-HTF[R8]EYWQL[Cba][S5]SAA-NH2; staple 4-11): the EPSA in the data set “physchem” came to 222 A^2. Further, in data set [1] (setting [6]), the logD is 2.56. For the same compound, the EC50 in data set [2] is > 50 µM. In addition, the solubility kinetic in data set [3] (setting [7]) amounted to 17 µM (≈ 30.8 µg/mL).
In the case of `CC(C)[C@@H](CS(=O)(=O)C(C)C)N1C(=O)[C@@](C)(CC(=O)O)C[C@H](c2cccc(Cl)c2)[C@H]1c1ccc(Cl)cc1` [AMG232], in data set [1], the logD turned out to be 2.25. The “TETCHO: Counterscreen % Effect” value is listed as 72.2% in data set [4] (0% FBS 4Hr), 30.6% in data set [4] (10% FBS 4Hr) and -10.3% in data set [4] (10% FBS 16Hr). The EC50 in data set [4] (T-REx-CHO-K1, 4 h, 0% FBS 4Hr) was 45.6 µM; in data set [4] (T-REx-CHO-K1, 4 h, 10% FBS 4Hr), > 50.4 µM; in data set [4] (T-REx-CHO-K1, 16 h, 10% FBS 16Hr), > 50.4 µM; in data set [5] (HCT-116, 4 h, 0% FBS 4Hr), 0.0116 µM; in data set [5] (HCT-116, 4 h, 10% FBS 4Hr) it was 0.0742 µM; in data set [5] (HCT-116, 16 h, 10% FBS 16Hr) it was 0.255 µM. Also, the entries for the “p53 reporter assay % Effect” value in data set [5] (0% FBS 4Hr), in data set [5] (10% FBS 4Hr) and in data set [5] (10% FBS 16Hr) were 95.1%, 82.7% and 83.6%, respectively. For the same compound, the results for the “LDH: Cytotoxicity assay % Effect” value with HCT116 cells (0% FBS 4Hr), in the data set with HCT116 cells (10% FBS 4Hr) and in the data set on HCT116 cells (10% FBS 16Hr) were -4.2%, -12.8% and -18.8%, respectively. The compound also came in with a solubility kinetic in data set [3] of 138 µM (≈ 78.5 µg/mL).
`CC(=O)N[C@@H](CC(C)C)C(=O)N[C@H](C(=O)N[C@@H](Cc1ccccc1)C(=O)N[C@]1(C)CCCCCCC=CCCC[C@@](C)(C(=O)N[C@@H](CCCNC(=N)N)C(=O)N[C@@H](C)C(=O)N[C@@H](C)C(N)=O)NC(=O)[C@H](CC2CCC2)NC(=O)[C@H](CC(C)C)NC(=O)[C@H](CCC(N)=O)NC(=O)[C@H](Cc2c[nH]c3ccccc23)NC(=O)[C@H](Cc2ccc(O)cc2)NC(=O)[C@H](CCC(=O)O)NC1=O)[C@@H](C)O` [MP-196] (Ac-LTF[R8]EYWQL[Cba][S5]RAA-NH2; staple 4-11) registered an EPSA in “physchem” of 214 A^2. The logD in data set [1] (setting [6]) was found to be 2.77. Besides, the EC50 in data set [2] was > 50 µM. Moreover, the solubility kinetic in data set [3] (setting [7]) came out at 3 µM (≈ 5.57 µg/mL).
Compound `CC(=O)N[C@@H](CC(C)C)C(=O)N[C@H](C(=O)N[C@@H](Cc1ccccc1)C(=O)N[C@]1(C)CCCCCCC=CCCC[C@@](C)(C(=O)N[C@@H](CO)C(N)=O)NC(=O)[C@H](CC2CCC2)NC(=O)[C@H](CC(C)C)NC(=O)[C@H](CCC(N)=O)NC(=O)[C@H](Cc2c[nH]c3ccccc23)NC(=O)[C@H](Cc2ccc(O)cc2)NC(=O)[C@H](CCC(=O)O)NC1=O)[C@@H](C)O` [MP-204] (Ac-LTF[R8]EYWQL[Cba][S5]S-NH2; staple 4-11) had an EPSA in “physchem” of 216 A^2. Moreover, the logD in data set [1] (setting [6]) was determined as 2.81. Further, the EC50 in data set [2] is > 50 µM. For the same compound, the solubility kinetic in data set [3] (setting [7]) worked out at 15 µM (≈ 24.7 µg/mL).
For `CC(=O)N[C@@H](Cc1ccccc1)C(=O)N[C@]1(C)CCCCCCC=CCCC[C@@](C)(C(=O)N[C@@H](CO)C(N)=O)NC(=O)[C@H](CC2CCC2)NC(=O)[C@H](CC(C)C)NC(=O)[C@H](CCC(N)=O)NC(=O)[C@H](Cc2c[nH]c3ccccc23)NC(=O)[C@H](Cc2ccc(O)cc2)NC(=O)[C@H](CCC(=O)O)NC1=O` [MP-203] (Ac-F[R8]EYWQL[Cba][S5]S-NH2; staple 2-9), in that order: 213 A^2, 2.61, > 50 µM and 96 µM (≈ 137 µg/mL).
For `CC(=O)N[C@@H](CC(C)C)C(=O)N[C@H](C(=O)N[C@@H](Cc1ccccc1)C(=O)N[C@]1(C)CCCCCCC=CCCC[C@@](C)(C(=O)N[C@@H](CO)C(=O)N[C@@H](C)C(=O)N[C@@H](C)C(N)=O)NC(=O)[C@H](CC2CCC2)NC(=O)[C@H](Cc2c[nH]cn2)NC(=O)[C@H](CCC(N)=O)NC(=O)[C@H](Cc2c[nH]c3ccccc23)NC(=O)[C@H](Cc2ccc(O)cc2)NC(=O)[C@H](CCC(=O)O)NC1=O)[C@@H](C)O` [MP-200, ATSP-7041 (L9H)] (Ac-LTF[R8]EYWQH[Cba][S5]SAA-NH2; staple 4-11) the same measures were 219 A^2, 2.69, > 50 µM and 94.5 µM (≈ 171 µg/mL).
For `CC(=O)N[C@@H](C)C(=O)N[C@@H](C)C(=O)N[C@@H](Cc1ccccc1)C(=O)N[C@]1(C)CCCCCCC=CCCC[C@@](C)(C(=O)N[C@@H](CO)C(=O)N[C@@H](C)C(=O)N[C@@H](C)C(N)=O)NC(=O)[C@H](CC2CCC2)NC(=O)[C@H](C)NC(=O)[C@H](C)NC(=O)[C@H](Cc2c[nH]c3ccccc23)NC(=O)[C@H](Cc2ccc(O)cc2)NC(=O)[C@H](CCC(=O)O)NC1=O` [MP-1207] (Ac-AAF[R8]EYWAA[Cba][S5]SAA-NH2; staple 4-11), in that order: 224 A^2, 2.91, > 50 µM and 171 µM (≈ 276 µg/mL).
For the compound `CC(=O)N[C@@H](CC(C)C)C(=O)N[C@H](C(=O)N[C@@H](Cc1ccccc1)C(=O)NC(C)(C)C(=O)N[C@@H](CCC(=O)O)C(=O)N[C@@H](Cc1ccc(O)cc1)C(=O)N[C@@H](Cc1c[nH]c2ccccc12)C(=O)N[C@@H](CCC(N)=O)C(=O)N[C@@H](CC(C)C)C(=O)N[C@@H](CC1CCC1)C(=O)NC(C)(C)C(=O)N[C@@H](CO)C(=O)N[C@@H](C)C(=O)N[C@@H](C)C(N)=O)[C@@H](C)O` [MP-7189], the EPSA in “physchem” turned out to be 199 A^2. Moreover, in data set [1] (setting [6]), the logD was 2.12. Also, in data set [2], the EC50 was > 50 µM. Besides, in data set [3] (setting [7]), the solubility kinetic came out at 24 µM (≈ 40 µg/mL).
For `CC(=O)N[C@@H](Cc1ccccc1)C(=O)N[C@]1(C)CCCCCCC=CCCC[C@@](C)(C(=O)N[C@@H](CO)C(=O)N[C@@H](C)C(=O)N[C@@H](C)C(N)=O)NC(=O)[C@H](CC2CCC2)NC(=O)[C@H](CC(C)C)NC(=O)[C@H](CCC(N)=O)NC(=O)[C@H](Cc2c[nH]c3ccccc23)NC(=O)[C@H](Cc2ccc(O)cc2)NC(=O)[C@H](CCC(=O)O)NC1=O` [MP-1202] (Ac-F[R8]EYWQL[Cba][S5]SAA-NH2; staple 2-9) the same measures were 214 A^2, 2.59, > 50 µM and 15 µM (≈ 23.6 µg/mL).
For `CC(=O)N[C@@H](CCCNC(=N)N)C(=O)N[C@H](C(=O)N[C@@H](Cc1ccccc1)C(=O)N[C@]1(C)CCCCCCC=CCCC[C@@](C)(C(=O)N[C@@H](CO)C(=O)N[C@@H](C)C(=O)N[C@@H](C)C(N)=O)NC(=O)[C@H](CC2CCC2)NC(=O)[C@H](CC(C)C)NC(=O)[C@H](CCC(N)=O)NC(=O)[C@H](Cc2c[nH]c3ccccc23)NC(=O)[C@H](Cc2ccc(O)cc2)NC(=O)[C@H](CCC(=O)O)NC1=O)[C@@H](C)O` [MP-191] (Ac-RTF[R8]EYWQL[Cba][S5]SAA-NH2; staple 4-11) the same measures were 222 A^2, 2.72, > 50 µM and 3 µM (≈ 5.49 µg/mL).

Values taken from publication PMC10786919, “Design-rules for stapled peptides with in vivo activity and their application to Mdm2/X antagonists” (Nature Communications, 2024).
